Assays:
[1] = system: Kras21 sequence from the promoter region of the kras gene; assay: FRET quadruplex stabilisation assay, Kras21; assay type: binding; conditions: compound at 1 μM, 60 mM potassium cacodylate buffer pH 7.4
Excerpt: (§1) The ability of the naphthalene diimide compounds to stabilize quadruplex DNA sequences was investigated using a fluorescence resonance energy transfer (FRET) assay modified to be used as a high-throughput screen in a 96-well format. Several quadruplex sequences were studied (including the human telomeric G-quadruplex DNA sequence 5′-FAM-d(GGG[TTAGGG]3)-TAMRA-3′ and the duplex sequence 5′-FAM-d[…]-HEG-[…]-TAMRA-3′ (HEG linker: [(—CH2—CH2—O—)6.
(§2) The labelled oligonucleotides have attached to them the donor fluorophore FAM: 6-carboxyfluorescein and the acceptor fluorophore TAMRA: 6-carboxytetramethylrhodamine. The FRET probe sequences were diluted from stock to the correct concentration (400 nM) in a 60 mM potassium cacodylate buffer (pH 7.4) and then annealed by heating to 85° C. for 10 min, followed by cooling to room temperature in the heating block. The compound was stored as a 10 mM stock solution in DMSO; final solutions (at 2× concentration) were prepared using 10 mM HCl in the initial 1:10 dilution, after which 60 mM potassium cacodylate buffer (pH 7.4) was used in all subsequent steps. The maximum HCl concentration in the reaction volume (at a ligand concentration of 20 μM) is thus 200 μM, well within the range of the buffer used. Relevant controls were also performed to check for interference with the assay. 96-Well plates (MJ Research, Waltham, Mass.) were prepared by aliquoting 50 μl of the annealed DNA into each well, followed by 50 μl of the compound solutions. Measurements were made on a DNA Engine Opticon (MJ Research) with excitation at 450-495 nm and detection at 515-545 nm. Fluorescence readings were taken at intervals of 0.5° C. in the range 30-100° C., with a constant temperature being maintained for 30 s prior to each reading to ensure a stable value. Final analysis of the data was carried out using a script written in the program Origin 7.0 (OriginLab Corp., Northampton, Mass.). The advanced curve-fitting function in Origin 7.0 was used for calculation of ΔTm values. All determinations were performed in triplicate or better. Esds in ΔTm are ±0.1° C.

[2] = system: Bcl-2 sequence from the promoter region of the bcl-2 gene; assay: FRET quadruplex stabilisation assay, Bcl-2; assay type: binding; conditions: compound at 1 μM, 60 mM potassium cacodylate buffer pH 7.4
Excerpt: as §1, §2

[3] = system: subcutaneous xenograft of the pancreatic tumour cell line MiaPaCa-2; assay: Antitumour activity in MiaPaCa-2 subcutaneous xenograft; assay type: in vivo, CD1 nude mice; conditions: 15 mg/kg IV twice weekly, FIG. 1
Excerpt: Study the therapeutic effect of compound 4c (MM41-tri) in comparison to MM41 and Gemcitabine in CD1 nude mice carrying a subcutaneous xenograft of the pancreatic tumour cell line MiaPaCa-2 (5×10^6 cells in the right flank) grown with Matrigel.
• 1 Inoculate SC 5×10^6 Miapaca-2 cells in the right flank (unsupplemented RPMI+Matrigel). • 2 Wait for tumours to establish subcutaneously (approx. 11 days). • 3 Measure size of the tumours weekly until they reach a mean size of 0.1 cm^3. At this stage of the development of the tumours, mice are ready to begin the therapy study. • 4 Re group mice to form 5 therapeutic groups constituted of 8 mice each, carrying approximately 0.1 cm^3 average of the tumour size per group. • 5 Administered corresponding dose of MM41 or compound 4c or Gemcitabine by IV. • Group 1: 8 mice treated with 15 mg/Kg of Gemcitabine twice weekly dose. • Group 2: 8 mice treated with 15 mg/Kg of MM41 (tetrasubstituted ND compound) twice weekly dose. • Group 3: 8 mice treated with 15 mg/Kg of Compound 4c twice weekly dose. • Group 4: 8 mice treated with 10 mg/Kg of Compound 4c twice weekly dose. • Group 5: 8 control mice treated with saline only twice weekly.

A549 (lung cancer) cells = assay: SRB growth inhibition, A549; assay type: cell-based, human; conditions: 96 hr, SRB assay; read-out: short-term 96 hr IC50 A549
Method: (§3) Human cancer cell lines and the somatic human cell line WI-38 (lung fibroblast) were purchased from the American Type Culture Collection. Cell lines were maintained in appropriate medium supplemented with 10% foetal bovine serum (Invitrogen, UK), 2 mM L-glutamine (Invitrogen, Netherlands), and other components as specified by the suppliers. Cell lines were maintained at 37° C., 5% CO2 and routinely passaged. Drugs were dissolved in DMSO and filtered through 0.22 μm pore-size filter units before addition to cell line appropriate media. Cellular growth inhibition was measured using the sulforhodamine B (SRB) assay in 96 well plates. Fifty percent inhibitory concentrations (IC50) were determined by taking the mean absorbance at 540 nm for each drug concentration expressed as a percentage of the absorbance of untreated control wells.

[4] = system: ALT (Alternative Lengthening of Telomeres) cell line; assay: SRB growth inhibition, ALT; assay type: cell-based, human; conditions: 96 hr, SRB assay; read-out: short-term 96 hr IC50 ALT
Method: as §3

MCF7 (breast) cells = assay: SRB growth inhibition, MCF7; assay type: cell-based, human; conditions: 96 hr, SRB assay; read-out: short-term 96 hr IC50 MCF7
Method: as §3

O=C1c2ccc3c4c(c(NCCN5CCCC5)cc(c24)C(=O)N1CCCN1CCOCC1)C(=O)N(CCCN1CCOCC1)C3=O [Compound 4c, 2,7-bis(3-morpholinopropyl)-4-((2-(pyrrolidin-1-yl)ethyl)amino)benzo[Imn][3,8]phenanthroline-1,3,6,8(2H,7H)-tetraone]
ΔTm Kras21 [1]: 11.0 °C
ΔTm Bcl-2 [2]: 13.3 °C
anti-tumour response (tumour growth curve) [3]: highly significant anti-tumour response
IC50 (A549 (lung cancer) cells): 24 nM
IC50 [4]: 93 nM
IC50 (MCF7 (breast) cells): 159 nM
